This is an account of results in ChEMBL document CHEMBL4732223, “Prenylated flavonoids from Ficus hirta induces HeLa cells apoptosis via MAPK and AKT signaling pathways” (Bioorg Med Chem Lett, 2021).

The subject of assay [1] is HeLa. In words: Cytotoxicity against human HeLa cells assessed as inhibition of cell proliferation by MTT assay. In kind it is functional, cell-based. (Formazan colour is commonly taken as a measure of viable cells.)
Assay [2] concerns MCF7. Kind of assay: Cytotoxicity against human MCF7 cells assessed as inhibition of cell proliferation by MTT assay. Type of assay: functional, cell-based.
Assay [3] relates to HepG2. Kind of assay: Cytotoxicity against human HepG2 cells assessed as inhibition of cell proliferation by MTT assay. In kind it is functional, cell-based.
The test system of assay [4] is NCI-H460. Kind of assay: Cytotoxicity against human NCI-H460 cells assessed as inhibition of cell proliferation by MTT assay. In kind it is functional, cell-based.
For assay [5], the system named is HeLa. Kind of assay: Induction of apoptosis in human HeLa cells assessed as increase in PARP cleavage measured after 24 hrs by Western blot analysis. Type of assay: functional, cell-based. To be noted: dose 10-30 µM.
The nature of assay [6]: Induction of apoptotis in human HeLa cells assessed as early apoptotic cells at 30 uM measured after 24 hrs by FITC/propidium iodide staining based flow cytometry (reference value: 5.46 %). Type of assay: functional. For orientation: A flow cytometer gives signals particle by particle.
Assay [7] is described as follows: Induction of apoptotis in human HeLa cells assessed as live cells at 30 uM measured after 24 hrs by FITC/propidium iodide staining based flow cytometry (reference value: 89.2 %). In kind it is functional.
Assay [8] is described as follows: Induction of apoptotis in human HeLa cells assessed as late apoptotic cells at 30 uM measured after 24 hrs by FITC/propidium iodide staining based flow cytometry (reference value: 2.74 %). Type of assay: functional.
A short description of assay [9]: Induction of apoptotis in human HeLa cells assessed as late apoptotic cells at 40 uM measured after 24 hrs by FITC/propidium iodide staining based flow cytometry (reference value: 2.74 %). Type of assay: functional.
Assay [10] in a line: Induction of apoptotis in human HeLa cells assessed as live cells at 10 uM measured after 24 hrs by FITC/propidium iodide staining based flow cytometry (reference value: 89.2 %). Type of assay: functional.
Assay [11] is described as follows: Induction of apoptotis in human HeLa cells assessed as early apoptotic cells at 10 uM measured after 24 hrs by FITC/propidium iodide staining based flow cytometry (reference value: 5.46 %). In kind it is functional.
Assay [12] can be described thus: Induction of apoptotis in human HeLa cells assessed as necrotic cells at 30 uM measured after 24 hrs by FITC/propidium iodide staining based flow cytometry (reference value: 2.59 %). In kind it is functional.
In assay [13] the test system is HeLa. Kind of assay: Activation of MAPK signaling pathway in human HeLa cells assessed as increase in phosphorylated JNK protein level at 30 uM measured after 24 hrs by Western blot analysis. Type of assay: cell-based. To be noted: filed as activator. (In western blotting, separated proteins are transferred to a membrane and probed.)
A short description of assay [14]: Induction of apoptotis in human HeLa cells assessed as live cells at 20 uM measured after 24 hrs by FITC/propidium iodide staining based flow cytometry (reference value: 89.2 %). Type of assay: functional.
Assay [15] is described as follows: Induction of apoptotis in human HeLa cells assessed as late apoptotic cells at 20 uM measured after 24 hrs by FITC/propidium iodide staining based flow cytometry (reference value: 2.74 %). In kind it is functional.
The nature of assay [16]: Induction of apoptotis in human HeLa cells assessed as necrotic cells at 20 uM measured after 24 hrs by FITC/propidium iodide staining based flow cytometry (reference value: 2.59 %). In kind it is functional.
Assay [17] in a line: Induction of apoptotis in human HeLa cells assessed as early apoptotic cells at 40 uM measured after 24 hrs by FITC/propidium iodide staining based flow cytometry (reference value: 5.46 %). In kind it is functional.
Assay [18] can be described thus: Induction of apoptotis in human HeLa cells assessed as necrotic cells at 40 uM measured after 24 hrs by FITC/propidium iodide staining based flow cytometry (reference value: 2.59 %). Type of assay: functional.
The target of assay [19] is Serine/threonine-protein kinase AKT (Homo sapiens) (UniProt P31751+Q9Y243+P31749). Kind of assay: […] of AKT signaling pathway in human HeLa cells assessed as reduction in phosphorylated AKT expression measured after 24 hrs by Western blot analysis. Type of assay: cell-based. Particulars: dose 10-30 µM.
Assay [20] in a line: Induction of apoptotis in human HeLa cells assessed as live cells at 40 uM measured after 24 hrs by FITC/propidium iodide staining based flow cytometry (reference value: 89.2 %). In kind it is functional.
The nature of assay [21]: Induction of apoptotis in human HeLa cells assessed as necrotic cells at 10 uM measured after 24 hrs by FITC/propidium iodide staining based flow cytometry (reference value: 2.59 %). In kind it is functional.
Assay [22] in a line: Induction of apoptotis in human HeLa cells assessed as late apoptotic cells at 10 uM measured after 24 hrs by FITC/propidium iodide staining based flow cytometry (reference value: 2.74 %). In kind it is functional.
For assay [23], the system named is HeLa. In words: Activation of MAPK signaling pathway in human HeLa cells assessed as increase in phosphorylated p38 protein level at 30 uM measured after 24 hrs by Western blot analysis. In kind it is cell-based. Particulars: filed as activator.
A short description of assay [24]: Induction of apoptotis in human HeLa cells assessed as early apoptotic cells at 20 uM measured after 24 hrs by FITC/propidium iodide staining based flow cytometry (reference value: 5.46 %). In kind it is functional.
Assay [25] concerns HeLa. Kind of assay: Activation of MAPK signaling pathway in human HeLa cells assessed as reduction in phosphorylated ERK expression measured after 24 hrs by Western blot analysis. In kind it is cell-based. To be noted: filed as activator, dose 10-30 µM.

Active and inactive are the calls of the source. The rule behind the calls is not given here.

Sequence of Serine/threonine-protein kinase AKT (Homo sapiens) (P31749 whole entry, looked up): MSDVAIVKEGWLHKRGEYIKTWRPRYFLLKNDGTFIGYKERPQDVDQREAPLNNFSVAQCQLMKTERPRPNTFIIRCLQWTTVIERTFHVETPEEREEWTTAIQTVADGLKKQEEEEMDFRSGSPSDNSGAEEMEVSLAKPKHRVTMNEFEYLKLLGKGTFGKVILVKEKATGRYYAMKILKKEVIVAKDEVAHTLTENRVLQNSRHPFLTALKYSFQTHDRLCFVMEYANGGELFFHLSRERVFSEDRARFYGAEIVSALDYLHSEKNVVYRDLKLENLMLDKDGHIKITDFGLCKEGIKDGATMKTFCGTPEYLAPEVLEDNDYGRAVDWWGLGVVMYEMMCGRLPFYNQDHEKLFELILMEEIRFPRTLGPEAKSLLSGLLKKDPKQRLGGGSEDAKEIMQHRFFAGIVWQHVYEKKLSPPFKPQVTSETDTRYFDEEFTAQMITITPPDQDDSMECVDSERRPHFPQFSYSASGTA
Sequence of Serine/threonine-protein kinase AKT (Homo sapiens) (P31751 whole entry, looked up): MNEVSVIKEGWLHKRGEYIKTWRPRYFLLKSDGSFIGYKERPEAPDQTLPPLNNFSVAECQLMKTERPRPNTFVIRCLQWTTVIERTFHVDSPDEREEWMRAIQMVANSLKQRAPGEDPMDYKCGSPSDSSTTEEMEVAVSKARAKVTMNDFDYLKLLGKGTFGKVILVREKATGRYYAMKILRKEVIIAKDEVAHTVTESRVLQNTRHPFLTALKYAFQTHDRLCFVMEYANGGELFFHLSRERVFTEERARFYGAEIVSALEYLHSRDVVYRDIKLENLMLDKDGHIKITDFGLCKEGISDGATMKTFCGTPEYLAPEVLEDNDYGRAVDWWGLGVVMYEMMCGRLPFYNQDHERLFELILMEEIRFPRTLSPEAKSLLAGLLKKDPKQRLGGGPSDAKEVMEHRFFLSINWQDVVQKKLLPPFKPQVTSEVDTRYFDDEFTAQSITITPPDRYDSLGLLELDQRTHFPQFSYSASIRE
Sequence of Serine/threonine-protein kinase AKT (Homo sapiens) (Q9Y243 whole entry, looked up): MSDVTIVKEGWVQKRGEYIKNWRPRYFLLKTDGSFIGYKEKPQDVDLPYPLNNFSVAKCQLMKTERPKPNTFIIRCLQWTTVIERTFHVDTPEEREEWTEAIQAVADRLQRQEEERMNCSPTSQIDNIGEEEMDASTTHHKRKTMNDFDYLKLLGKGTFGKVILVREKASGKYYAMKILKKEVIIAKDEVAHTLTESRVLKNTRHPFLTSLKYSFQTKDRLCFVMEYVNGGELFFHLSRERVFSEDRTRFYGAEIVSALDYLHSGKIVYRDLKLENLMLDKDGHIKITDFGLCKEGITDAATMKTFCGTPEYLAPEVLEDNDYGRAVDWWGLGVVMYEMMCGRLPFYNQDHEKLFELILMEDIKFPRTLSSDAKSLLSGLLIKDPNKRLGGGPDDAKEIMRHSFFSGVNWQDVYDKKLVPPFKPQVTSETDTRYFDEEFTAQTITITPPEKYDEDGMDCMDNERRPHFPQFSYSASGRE

Broadly, the IC50 is the concentration that gives 50% inhibition. `CC(C)=CCc1cc(-c2cc(=O)c3c(O)cc(O)cc3o2)cc(O)c1O`: the IC50 in assay [1], in assay [2], in assay [3] and in assay [4] was over 40 µM in each case.
Consider `CC(C)=CCc1c(O)cc2oc(-c3ccc(O)c(O)c3)cc(=O)c2c1O`, for which the IC50 in [1], in [2], in assay [3] and in [4] was over 40 µM each time.
Consider `COc1c(CC=C(C)C)cc(C2CC(=O)c3c(O)cc(O)cc3O2)c(CC=C(C)C)c1OC` (racemic), for which the IC50 in assay [1], in assay [2], in assay [3] and in assay [4] was over 40 µM throughout.
In the case of `CC(C)=CCc1cc(-c2cc(=O)c3c(O)cc(O)cc3o2)ccc1O`, the IC50 in [1], in assay [2], in assay [3] and in [4] was over 40 µM in each case.
Turning to `CC(C)=CCc1c(O)cc2oc(-c3ccc(O)cc3)cc(=O)c2c1O`, the Activity entry in [5] was “Dose-dependent effect”; in assay [6] it was 9.41%; in assay [7], 86.5%; in [8], 3.4%; in [9] it was 4.28%; in assay [10], 88.2%. Also, the Activity in [11] is listed as 6.92%; in assay [12], 0.69%; in assay [14], 87.6%; in [15], 3.23%; in [16] it was 0.88%; in assay [17], 12.5%. In addition, the Activity in assay [18] was 0.63%; in assay [19], “Dose-dependent effect”; in assay [20], 82.6%; in [21], 0.75%; in assay [22], 4.11%; in assay [24], 8.25%. In addition, the Activity entry in assay [25] is “Dose-dependent effect”. The IC50 was 28.9 µM in assay [1], 32.4 µM in [2], over 40 µM in assay [3] and 38.5 µM in [4]. The result in assay [13] and in [23] was Active.
With `CC(C)=CCc1c(O)cc(O)c2c(=O)cc(-c3ccc(O)cc3)oc12`, the IC50 in assay [1], in assay [2], in assay [3] and in assay [4] was over 40 µM throughout.
